How the values were obtained:
Experiment in all cases: kinobeads assay with mass spectrometry detection of kinases (kinase selectivity profile)
Assay type in all cases: binding
kinases (kinome) [1] = target: T1, kinases (kinome) (Homo sapiens, UniProt Q9Y2U5); details: MAP3K2 (STE), IPI00513803
T1 construct: determined in kinobeads assays with mass spectrometry detection of kinases as described previously; endogenous in cells; host or cells: cell lysate
T1 sequence (Q9Y2U5 1-619): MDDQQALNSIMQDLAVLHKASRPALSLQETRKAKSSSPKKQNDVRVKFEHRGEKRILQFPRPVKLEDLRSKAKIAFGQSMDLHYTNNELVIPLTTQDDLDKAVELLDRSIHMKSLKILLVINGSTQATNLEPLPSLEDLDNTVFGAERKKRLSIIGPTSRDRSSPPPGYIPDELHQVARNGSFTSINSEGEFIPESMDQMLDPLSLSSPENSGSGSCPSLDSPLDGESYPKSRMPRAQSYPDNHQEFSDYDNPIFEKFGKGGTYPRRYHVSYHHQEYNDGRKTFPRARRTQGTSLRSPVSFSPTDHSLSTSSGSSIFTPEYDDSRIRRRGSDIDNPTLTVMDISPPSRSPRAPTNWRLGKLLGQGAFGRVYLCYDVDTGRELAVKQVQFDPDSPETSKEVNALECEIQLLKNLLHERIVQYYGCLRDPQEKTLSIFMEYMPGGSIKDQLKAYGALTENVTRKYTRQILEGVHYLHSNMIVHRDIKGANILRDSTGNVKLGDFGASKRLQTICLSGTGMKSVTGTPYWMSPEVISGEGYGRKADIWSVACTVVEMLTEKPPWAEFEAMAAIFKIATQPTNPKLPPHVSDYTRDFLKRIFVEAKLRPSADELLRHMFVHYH
From the text: (§1) The protein kinase complement of the human genome (the kinome) was described previously (Manning et al., 2002. Science 298(5600):1912-1934). Sequence accession numbers are defined by the International Protein Index (IPI) (Kersey et al., 2004. Proteomics 4(7):1985-1988).

kinases (kinome) [2] = target: T2, kinases (kinome) (Homo sapiens, UniProt Q9BQI3); details: HRI (Other), IPI00328149
T2 construct: determined in kinobeads assays with mass spectrometry detection of kinases as described previously; endogenous in cells; host or cells: cell lysate
T2 sequence (Q9BQI3 whole entry): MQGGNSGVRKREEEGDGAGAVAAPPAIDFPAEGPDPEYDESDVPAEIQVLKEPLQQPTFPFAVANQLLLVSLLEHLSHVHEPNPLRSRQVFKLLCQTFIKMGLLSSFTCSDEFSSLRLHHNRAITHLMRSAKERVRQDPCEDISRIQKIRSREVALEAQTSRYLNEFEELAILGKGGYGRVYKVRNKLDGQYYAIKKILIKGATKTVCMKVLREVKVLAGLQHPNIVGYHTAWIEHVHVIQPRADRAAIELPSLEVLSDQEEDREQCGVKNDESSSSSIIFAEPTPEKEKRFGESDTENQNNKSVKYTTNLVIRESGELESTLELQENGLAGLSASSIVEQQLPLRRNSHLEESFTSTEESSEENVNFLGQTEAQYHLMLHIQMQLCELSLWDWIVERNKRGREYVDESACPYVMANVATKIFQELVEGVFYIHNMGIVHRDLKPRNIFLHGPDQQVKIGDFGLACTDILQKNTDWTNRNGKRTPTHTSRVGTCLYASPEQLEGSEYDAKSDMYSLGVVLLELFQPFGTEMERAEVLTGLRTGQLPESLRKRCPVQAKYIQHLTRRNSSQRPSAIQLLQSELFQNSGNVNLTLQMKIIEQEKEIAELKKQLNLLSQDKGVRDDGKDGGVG
From the text: as §1

kinases (kinome) [3] = target: T3, kinases (kinome) (Homo sapiens, UniProt Q86YV5); details: SgK223 (Other), IPI00739386
T3 construct: determined in kinobeads assays with mass spectrometry detection of kinases as described previously; endogenous in cells; host or cells: cell lysate
T3 sequence (Q86YV5 1-1406): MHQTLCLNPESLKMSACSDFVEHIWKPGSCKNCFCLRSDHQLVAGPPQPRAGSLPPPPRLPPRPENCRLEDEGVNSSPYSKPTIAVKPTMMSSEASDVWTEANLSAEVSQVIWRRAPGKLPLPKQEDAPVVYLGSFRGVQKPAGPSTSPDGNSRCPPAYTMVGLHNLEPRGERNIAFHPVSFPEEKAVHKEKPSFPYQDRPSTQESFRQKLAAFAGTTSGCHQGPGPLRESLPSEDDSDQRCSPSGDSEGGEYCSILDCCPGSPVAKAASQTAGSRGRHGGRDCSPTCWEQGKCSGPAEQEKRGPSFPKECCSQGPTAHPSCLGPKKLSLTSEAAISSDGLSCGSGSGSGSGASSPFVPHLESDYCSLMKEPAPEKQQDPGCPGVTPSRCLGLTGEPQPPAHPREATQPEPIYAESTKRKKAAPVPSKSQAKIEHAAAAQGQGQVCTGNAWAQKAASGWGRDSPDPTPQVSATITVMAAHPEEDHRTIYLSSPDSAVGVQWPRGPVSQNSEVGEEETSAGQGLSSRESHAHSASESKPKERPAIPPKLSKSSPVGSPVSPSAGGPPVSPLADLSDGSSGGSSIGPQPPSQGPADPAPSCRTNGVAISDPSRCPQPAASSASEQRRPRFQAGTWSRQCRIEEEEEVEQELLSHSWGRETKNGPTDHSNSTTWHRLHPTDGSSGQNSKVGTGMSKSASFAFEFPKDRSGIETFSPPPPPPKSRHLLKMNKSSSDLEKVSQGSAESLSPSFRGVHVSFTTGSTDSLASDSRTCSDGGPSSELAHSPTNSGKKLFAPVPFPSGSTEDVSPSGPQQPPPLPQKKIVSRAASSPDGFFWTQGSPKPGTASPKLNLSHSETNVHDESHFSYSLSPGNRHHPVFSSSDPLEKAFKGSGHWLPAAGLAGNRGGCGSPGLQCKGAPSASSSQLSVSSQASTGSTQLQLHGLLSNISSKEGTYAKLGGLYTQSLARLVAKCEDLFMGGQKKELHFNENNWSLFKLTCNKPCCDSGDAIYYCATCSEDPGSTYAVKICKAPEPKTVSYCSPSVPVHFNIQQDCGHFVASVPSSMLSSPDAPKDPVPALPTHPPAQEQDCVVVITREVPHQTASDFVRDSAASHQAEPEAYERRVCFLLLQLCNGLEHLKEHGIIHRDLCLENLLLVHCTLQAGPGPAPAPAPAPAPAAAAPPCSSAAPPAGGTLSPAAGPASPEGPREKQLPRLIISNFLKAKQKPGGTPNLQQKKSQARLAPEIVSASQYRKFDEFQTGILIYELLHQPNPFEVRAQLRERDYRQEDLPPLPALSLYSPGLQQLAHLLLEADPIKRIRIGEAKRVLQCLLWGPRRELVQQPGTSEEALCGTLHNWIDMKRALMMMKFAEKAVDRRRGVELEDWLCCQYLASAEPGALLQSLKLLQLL
From the text: as §1

kinases (kinome) [4] = target: T4, kinases (kinome) (Homo sapiens, UniProt Q13705); details: ACTR2B (TKL), IPI00437565
T4 construct: determined in kinobeads assays with mass spectrometry detection of kinases as described previously; endogenous in cells; host or cells: cell lysate
T4 sequence (Q13705 19-512): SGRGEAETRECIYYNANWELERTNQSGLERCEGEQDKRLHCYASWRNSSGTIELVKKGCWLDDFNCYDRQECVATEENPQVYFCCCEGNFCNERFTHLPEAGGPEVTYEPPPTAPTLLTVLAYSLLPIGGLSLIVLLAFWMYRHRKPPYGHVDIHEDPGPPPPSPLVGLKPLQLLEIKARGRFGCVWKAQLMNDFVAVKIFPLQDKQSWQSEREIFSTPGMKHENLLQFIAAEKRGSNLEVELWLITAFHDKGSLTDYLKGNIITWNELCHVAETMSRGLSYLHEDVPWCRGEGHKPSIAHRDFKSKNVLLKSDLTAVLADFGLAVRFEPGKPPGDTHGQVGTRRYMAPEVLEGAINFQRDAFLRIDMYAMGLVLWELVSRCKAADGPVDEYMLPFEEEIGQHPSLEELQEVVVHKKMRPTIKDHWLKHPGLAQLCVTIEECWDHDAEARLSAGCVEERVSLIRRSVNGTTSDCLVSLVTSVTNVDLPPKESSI
From the text: as §1

kinases (kinome) [5] = target: T5, kinases (kinome) (Homo sapiens, UniProt Q00535); details: CDK5 (CMGC), IPI00023530
T5 construct: determined in kinobeads assays with mass spectrometry detection of kinases as described previously; endogenous in cells; host or cells: cell lysate
T5 sequence (Q00535 whole entry): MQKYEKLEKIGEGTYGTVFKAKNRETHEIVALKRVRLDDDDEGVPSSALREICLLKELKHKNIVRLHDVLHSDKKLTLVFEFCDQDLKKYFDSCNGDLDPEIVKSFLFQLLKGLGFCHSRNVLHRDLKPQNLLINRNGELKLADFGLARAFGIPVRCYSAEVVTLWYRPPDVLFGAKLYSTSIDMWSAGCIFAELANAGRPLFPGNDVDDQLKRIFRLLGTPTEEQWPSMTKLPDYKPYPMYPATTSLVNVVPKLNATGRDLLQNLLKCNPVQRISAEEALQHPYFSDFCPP
From the text: as §1

kinases (kinome) [6] = target: T6, kinases (kinome) (Homo sapiens, UniProt P53671); details: LIMK2 (TKL), IPI00025698
T6 construct: determined in kinobeads assays with mass spectrometry detection of kinases as described previously; endogenous in cells; host or cells: cell lysate
T6 sequence (P53671 whole entry): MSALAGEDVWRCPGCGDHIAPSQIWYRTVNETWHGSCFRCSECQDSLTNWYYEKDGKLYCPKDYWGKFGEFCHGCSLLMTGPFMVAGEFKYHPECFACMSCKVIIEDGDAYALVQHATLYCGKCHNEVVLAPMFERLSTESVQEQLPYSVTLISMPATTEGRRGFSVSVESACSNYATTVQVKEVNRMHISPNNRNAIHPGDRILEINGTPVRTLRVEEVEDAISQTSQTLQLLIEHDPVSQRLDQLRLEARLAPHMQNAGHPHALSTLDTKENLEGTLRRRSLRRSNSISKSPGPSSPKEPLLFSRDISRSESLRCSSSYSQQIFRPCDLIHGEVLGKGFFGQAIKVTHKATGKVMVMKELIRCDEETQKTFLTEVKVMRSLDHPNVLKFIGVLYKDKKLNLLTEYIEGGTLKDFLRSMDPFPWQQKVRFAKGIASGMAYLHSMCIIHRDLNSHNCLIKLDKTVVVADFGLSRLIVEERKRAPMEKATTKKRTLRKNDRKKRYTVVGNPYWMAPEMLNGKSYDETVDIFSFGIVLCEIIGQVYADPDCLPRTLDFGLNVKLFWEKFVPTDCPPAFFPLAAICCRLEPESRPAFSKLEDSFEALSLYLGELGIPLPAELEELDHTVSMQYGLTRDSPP
From the text: as §1

kinases (kinome) [7] = target: T7, kinases (kinome) (Homo sapiens, UniProt P09769); details: FGR (TK), IPI00016871
T7 construct: determined in kinobeads assays with mass spectrometry detection of kinases as described previously; endogenous in cells; host or cells: cell lysate
T7 sequence (P09769 whole entry): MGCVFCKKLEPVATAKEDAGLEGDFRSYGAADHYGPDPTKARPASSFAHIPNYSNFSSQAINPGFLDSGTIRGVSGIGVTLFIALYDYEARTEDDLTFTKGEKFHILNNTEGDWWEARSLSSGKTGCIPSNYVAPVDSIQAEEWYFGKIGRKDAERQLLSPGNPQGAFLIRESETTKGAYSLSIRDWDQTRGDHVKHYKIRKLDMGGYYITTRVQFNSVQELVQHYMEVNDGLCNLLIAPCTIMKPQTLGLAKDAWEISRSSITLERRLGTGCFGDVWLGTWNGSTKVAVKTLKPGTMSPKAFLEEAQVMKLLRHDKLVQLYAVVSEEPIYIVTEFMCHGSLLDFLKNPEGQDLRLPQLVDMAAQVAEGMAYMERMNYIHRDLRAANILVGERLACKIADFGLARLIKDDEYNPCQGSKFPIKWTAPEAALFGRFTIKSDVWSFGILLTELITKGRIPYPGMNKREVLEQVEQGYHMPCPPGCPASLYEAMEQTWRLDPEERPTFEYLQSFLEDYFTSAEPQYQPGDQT
From the text: as §1

Row | IC50 (kinases (kinome) [1]) | IC50 (kinases (kinome) [2]) | IC50 (kinases (kinome) [3]) | IC50 (kinases (kinome) [4]) | IC50 (kinases (kinome) [5]) | IC50 (kinases (kinome) [6]) | IC50 (kinases (kinome) [7]) | Compound
1 | > 10 µM |  | > 10 µM | > 10 µM | > 10 µM | > 10 µM | > 10 µM | C[C@H]1COCCN1c1cc(-c2ccccc2S(C)(=O)=O)nc(-c2ccc(NC(=O)NC3CC3)cc2)n1 [Example 6, (S)-1-cyclopropyl-3-(4-(4-(3-methylmorpholino)-6-(2-(methylsulfonyl)phenyl)pyrimidin-2-yl)phenyl)urea]
2 | > 10 µM | > 10 µM | > 10 µM | > 10 µM | > 10 µM | > 10 µM | > 10 µM | CCNC(=O)Nc1ccc(-c2cc(-c3ccccc3C#N)nc(N3CCOC[C@@H]3C)n2)cc1 [Example 8, (S)-1-(4-(6-(2-cyanophenyl)-2-(3-methylmorpholino)pyrimidin-4-yl)phenyl)-3-ethylurea]
3 | > 10 µM | > 10 µM | > 10 µM | > 10 µM | > 10 µM | > 10 µM | > 10 µM | C[C@H]1COCCN1c1nc(-c2ccc(NC(=O)N[C@H]3CCC[C@@H]3O)cc2)cc(-c2cc(F)ccc2S(C)(=O)=O)n1 [Example 76, 1-(4-(6-(5-fluoro-2-(methylsulfonyl)phenyl)-2-((S)-3-methylmorpholino)pyrimidin-4-yl)phenyl)-3-((1S,2S)-2-hydroxycyclopentyl)urea]
4 | > 10 µM | > 10 µM |  | > 10 µM | > 10 µM | > 10 µM | > 10 µM | C[C@H]1COCCN1c1nc(-c2ccc(NC(=O)NC3CC3)cc2)cc(-c2ccccc2S(C)(=O)=O)n1 [Example 4, (S)-1-cyclopropyl-3-(4-(2-(3-methylmorpholino)-6-(2-(methylsulfonyl)phenyl)pyrimidin-4-yl)phenyl)urea]

The next lines start with the molecule.

Row | Compound | IC50 (kinases (kinome) [1]) | IC50 (kinases (kinome) [2]) | IC50 (kinases (kinome) [3]) | IC50 (kinases (kinome) [4]) | IC50 (kinases (kinome) [5]) | IC50 (kinases (kinome) [6]) | IC50 (kinases (kinome) [7])
5 | C[C@H]1COCCN1c1nc(-c2ccc(NC(=O)NC3CC3)cc2)cc(-c2cc(F)ccc2S(C)(=O)=O)n1 [Example 40, (S)-1-cyclopropyl-3-(4-(6-(5-fluoro-2-(methylsulfonyl)phenyl)-2-(3-methylmorpholino)pyrimidin-4-yl)phenyl)urea] | > 10 µM | > 10 µM | > 10 µM | > 10 µM | > 10 µM | > 10 µM | > 10 µM
6 | C[C@H]1COCCN1c1nc(-c2ccc(NC(=O)NC3CC3)cc2)cc(-c2cccnc2S(C)(=O)=O)n1 [Example 46, (S)-1-cyclopropyl-3-(4-(2-(3-methylmorpholino)-6-(2-(methylsulfonyl)pyridin-3-yl)pyrimidin-4-yl)phenyl)urea] | > 10 µM | > 10 µM | > 10 µM | > 10 µM | > 10 µM | > 10 µM | > 10 µM
7 | C[C@H]1COCCN1c1cc(-c2ccccn2)nc(-c2ccc(NC(=O)NCCO)cc2)n1 [Example 43, (S)-1-(2-hydroxyethyl)-3-(4-(4-(3-methylmorpholino)-6-(pyridin-2-yl)pyrimidin-2-yl)phenyl)urea] | > 10 µM | > 10 µM | > 10 µM | > 10 µM | > 10 µM | > 10 µM | > 10 µM

— patent US9249129B2, “Morpholino substituted urea derivatives as mTOR inhibitors” (CELLZOME LIMITED, priority 2010, dated 2016)
